Measurements from ChEMBL document CHEMBL4602657, “Design and evaluation of Nrf2 activators with 1,3,4-oxa/thiadiazole core as neuro-protective agents against oxidative stress in PC-12 cells” (Bioorg Med Chem Lett, 2020).
Converted amounts (≈) assume the structure as drawn. The source made the active and inactive calls. The calls are words filed in the database; no cut-off is given here.

What was measured:
[1] = biological target: T1, Nuclear factor erythroid 2-related factor 2 (Homo sapiens) (UniProt Q16236); assay: Activation of Nrf2 in human HepG2-ARE-C8 cells assessed as fold change at 0.1 uM measured after 12 hrs by luciferase reporter gene assay relative to control; format: cell-based
T1 sequence (whole entry): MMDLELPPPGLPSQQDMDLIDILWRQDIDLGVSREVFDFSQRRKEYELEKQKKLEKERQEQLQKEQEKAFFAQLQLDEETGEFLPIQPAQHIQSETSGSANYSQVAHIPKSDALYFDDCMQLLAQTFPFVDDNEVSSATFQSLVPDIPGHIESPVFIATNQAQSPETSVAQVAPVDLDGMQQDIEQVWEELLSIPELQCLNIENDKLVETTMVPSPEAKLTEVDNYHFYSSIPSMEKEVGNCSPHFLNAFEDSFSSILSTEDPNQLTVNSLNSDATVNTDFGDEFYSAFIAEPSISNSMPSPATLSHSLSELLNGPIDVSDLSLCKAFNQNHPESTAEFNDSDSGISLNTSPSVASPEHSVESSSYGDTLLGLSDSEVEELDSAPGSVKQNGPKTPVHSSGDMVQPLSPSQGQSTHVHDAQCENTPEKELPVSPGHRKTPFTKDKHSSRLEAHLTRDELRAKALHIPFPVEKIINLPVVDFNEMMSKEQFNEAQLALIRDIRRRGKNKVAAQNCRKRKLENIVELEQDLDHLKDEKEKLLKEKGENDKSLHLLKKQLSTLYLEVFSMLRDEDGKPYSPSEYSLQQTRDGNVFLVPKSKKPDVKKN

[2] = biological target: T1, Nuclear factor erythroid 2-related factor 2 (Homo sapiens); assay: Activation of Nrf2 in human HepG2-ARE-C8 cells assessed as fold change at 1 uM measured after 12 hrs by luciferase reporter gene assay relative to control; format: cell-based
[3] = biological target: T1, Nuclear factor erythroid 2-related factor 2 (Homo sapiens); assay: Activation of Nrf2 in human HepG2-ARE-C8 cells assessed as fold change at 10 uM measured after 12 hrs by luciferase reporter gene assay relative to control; format: cell-based
[4] = biological target: T1, Nuclear factor erythroid 2-related factor 2 (Homo sapiens); assay: Activation of Nrf2 in human HepG2-ARE-C8 cells assessed as fold change at 20 uM measured after 12 hrs by luciferase reporter gene assay relative to control; format: cell-based
[5] = biological target: T1, Nuclear factor erythroid 2-related factor 2 (Homo sapiens); assay: Activation of Nrf2 in human HepG2-ARE-C8 cells assessed as fold change at 40 uM measured after 12 hrs by luciferase reporter gene assay relative to control; format: cell-based
[6] = biological target: T1, Nuclear factor erythroid 2-related factor 2 (Homo sapiens); assay: Activation of Nrf2 in human HepG2-ARE-C8 cells assessed as fold change at 80 uM measured after 12 hrs by luciferase reporter gene assay relative to control; format: cell-based
PC-12 [7] = assay: Cytotoxicity against rat PC12 cells assessed as reduction in cell viability incubated for 24 hrs by MTT assay; format: cell-based; conditions: PC-12, 24 h
SH-SY5Y [8] = assay: Cytotoxicity against human SH-SY5Y cells assessed as reduction in cell viability at 100 uM by MTT assay; format: cell-based
SH-SY5Y [9] = assay: Neuroprotective activity in human SH-SY5Y cells assessed as reduction in H2O2-induced cell damage at 5 uM preincubated for 6 hrs followed by H2O2 treatment and measured after 12 hrs by MTT assay; format: functional, cell-based
SH-SY5Y [10] = assay: Neuroprotective activity in human SH-SY5Y cells assessed as reduction in H2O2-induced cell damage at 10 to 20 uM preincubated for 6 hrs followed by H2O2 treatment and measured after 12 hrs by MTT assay; format: functional, cell-based
PC-12 [11] = assay: Upregulation of Nrf2 mRNA in rat PC12 cell incubated for 12 hrs by qRT-PCR analysis; format: functional, cell-based
PC-12 [12] = assay: Upregulation of NQ-O1 mRNA in rat PC12 cell incubated for 12 hrs by qRT-PCR analysis; format: functional, cell-based
PC-12 [13] = assay: Upregulation of HO-1 mRNA in rat PC12 cell incubated for 12 hrs by qRT-PCR analysis; format: functional, cell-based
PC-12 [14] = assay: Upregulation of Nrf2 protein level in rat PC12 cell incubated for 12 hrs by Western blot analysis; format: functional, cell-based
PC-12 [15] = assay: Upregulation of NQ-O1 protein level in rat PC12 cell incubated for 12 hrs by Western blot analysis; format: functional, cell-based
PC-12 [16] = assay: Upregulation of HO-1 protein level in rat PC12 cell incubated for 12 hrs by Western blot analysis; format: functional, cell-based
[17] = Permeability of the compound by PAMPA; format: ADME; conditions: read-out: permeability
[18] = Lipophilicity, logD of the compound at pH 7.4; format: physicochemical; conditions: buffer
[19] = Intrinsic aqueous solubility of the compound; format: physicochemical; conditions: read-out: Intrinsic_solubility

Structure (SMILES) | fold change (FC) [1] | fold change (FC) [2] | fold change (FC) [3] | fold change (FC) [4] | fold change (FC) [5] | fold change (FC) [6] | Papp [17] | logD [18] | solubility [19] | IC50 (PC-12 [7]) | Activity (SH-SY5Y [8]) | Activity (SH-SY5Y [9]) | Activity (SH-SY5Y [10]) | Activity (PC-12 [11]) | Activity (PC-12 [12]) | Activity (PC-12 [13]) | Activity (PC-12 [14]) | Activity (PC-12 [15]) | Activity (PC-12 [16])
COc1cccc(-c2nnc(-c3ccc4nc[nH]c4c3)o2)c1 | 1.64 | 1.72 | 1.72 | 1.83 | 2.41 | 7.5 | – | – | – | – | – | – | – | – | – | – | – | – | –
c1ccc(-c2ccc(-c3nnc(-c4ccc5nc[nH]c5c4)o3)cc2)cc1 | 0.9 | 1.6 | 1.58 | 3.15 | 5.18 | 9.1 | – | – | – | – | – | – | – | – | – | – | – | – | –
O=[N+]([O-])c1ccc(-c2nnc(-c3ccc4nc[nH]c4c3)s2)cc1 | 2.2 | 5.75 | 19.4 | 17.4 | 22.2 | 24.6 | – | – | – | > 500 µM | Non-Toxic | Active | inactive | – | – | – | – | – | –
CCCCc1ccc(-c2nnc(-c3ccc4nc[nH]c4c3)s2)cc1 | 1.08 | 2.33 | 2.3 | 1.68 | 1.33 | 1.43 | – | – | – | – | – | – | – | – | – | – | – | – | –
Fc1ccc(-c2nnc(-c3ccc4nc[nH]c4c3)s2)cc1 | 1.6 | 3.25 | 13.1 | 14.9 | 22.3 | 9.9 | – | – | – | > 500 µM | Non-Toxic | inactive | Active | – | – | – | – | – | –
CC(C)(C)c1cc(O)ccc1O | 1.68 | 1.7 | – | – | 5.1 | 4.73 | – | – | – | – | – | – | – | – | – | – | – | – | –
c1ccc(-c2nnc(-c3ccc4nc[nH]c4c3)s2)cc1 | 1.7 | 2.03 | 8.95 | 8.18 | 13.8 | 15.7 | – | – | – | – | – | – | – | – | – | – | – | – | –

Second part, led by results:

fold change (FC) [1] | fold change (FC) [2] | fold change (FC) [3] | fold change (FC) [4] | fold change (FC) [5] | fold change (FC) [6] | Papp [17] | logD [18] | solubility [19] | Structure (SMILES) | IC50 (PC-12 [7]) | Activity (SH-SY5Y [8]) | Activity (SH-SY5Y [9]) | Activity (SH-SY5Y [10]) | Activity (PC-12 [11]) | Activity (PC-12 [12]) | Activity (PC-12 [13]) | Activity (PC-12 [14]) | Activity (PC-12 [15]) | Activity (PC-12 [16])
1.45 | 2.38 | 1.35 | 1.65 | 1.75 | 1.63 | – | – | – | Fc1cccc(-c2nnc(-c3ccc4nc[nH]c4c3)o2)c1 | – | – | – | – | – | – | – | – | – | –
1.4 | 1.65 | 1.33 | 2.35 | 1.78 | 2.83 | – | – | – | N#Cc1ccc(-c2nnc(-c3ccc4nc[nH]c4c3)o2)cc1 | – | – | – | – | – | – | – | – | – | –
1.5 | 1.9 | 7.68 | 12.2 | 20.1 | 33.8 | – | – | – | O=[N+]([O-])c1ccc(-c2nnc(-c3ccc4nc[nH]c4c3)o2)cc1 | > 100 µM | Non-Toxic | Active | inactive | – | – | – | – | – | –
1.7 | 2.35 | 6.7 | 9.15 | 13.5 | 19.1 | – | – | – | c1ccc(-c2nnc(-c3ccc4nc[nH]c4c3)o2)cc1 | – | – | – | – | – | – | – | – | – | –
1.4 | 1.45 | 3.25 | 3.35 | 4.95 | 6.6 | – | – | – | Cc1ccc(-c2nnc(-c3ccc4nc[nH]c4c3)o2)cc1 | – | – | – | – | – | – | – | – | – | –
2.05 | 4.85 | 7.98 | 8.08 | 6.23 | 7.98 | – | – | – | Brc1ccc(-c2nnc(-c3ccc4nc[nH]c4c3)o2)cc1 | – | – | – | – | – | – | – | – | – | –
1.8 | 6.73 | 14.8 | 15.9 | 24.6 | 19.6 | 12.3 ×10⁻⁶ cm/s | – | – | CCCCc1ccc(-c2nnc(-c3ccc4nc[nH]c4c3)o2)cc1 | > 100 µM | Non-Toxic | inactive | Active | Dose-dependent effect | Dose-dependent effect | Dose-dependent effect | Dose-dependent effect | Dose-dependent effect | Dose-dependent effect
1.58 | 1.28 | 2.6 | 6.83 | 8.73 | 24.4 | – | 2.89 | 102 µM (≈ 28.7 µg/mL) | Fc1ccc(-c2nnc(-c3ccc4nc[nH]c4c3)o2)cc1 | – | – | – | – | – | – | – | – | – | –
